In ChEMBL document CHEMBL5137095, “N-Benzyl Benzamide Derivatives as Selective Sub-Nanomolar Butyrylcholinesterase Inhibitors for Possible Treatment in Advanced Alzheimer's Disease” (J Med Chem, 2022):
The source made the active and inactive calls. The calls are words filed in the database; no cut-off is given here.

Tests used:
[1] = test system: Mus musculus; experiment: Cognitive enhancing effect in amyloid beta (1 to 42)-induced ICR mouse model assessed as reduction in latency at 1 mg/kg, icv measured on day 14 by Morris Water maze method; assay type: functional, organism-based
[2] = test system: Mus musculus; experiment: Cognitive enhancing effect in amyloid beta (1 to 42)-induced ICR mouse model assessed as reduction in latency at 2.5 mg/kg, icv measured on day 14 by Morris Water maze method; assay type: functional, organism-based
[3] = test system: Mus musculus; experiment: Cognitive enhancing effect in amyloid beta (1 to 42)-induced ICR mouse model assessed as decrease in TNF-alpha level in brain at 0.5 to 10, icv measured on day 14 by ELISA; assay type: functional, organism-based; conditions: dose 0.5-10 mg/kg, time 14.0 day
[4] = test system: Mus musculus; experiment: Cognitive enhancing effect in amyloid beta (1 to 42)-induced ICR mouse model assessed as decrease in IFN-gamma level in brain at 0.5 to 10, icv measured on day 14 by ELISA; assay type: functional, organism-based; conditions: dose 0.5-10 mg/kg, time 14.0 day
[5] = test system: Mus musculus; experiment: Cognitive enhancing effect in amyloid beta (1 to 42)-induced ICR mouse model assessed as reduction in amyloid beta (1 to 42) peptide level in brain administered via icv measured on day 14 by ELISA; assay type: functional, organism-based; conditions: dose 0.5-10 mg/kg, time 14.0 day, DDE = dose-dependent effect
[6] = test system: Mus musculus; experiment: Cognitive enhancing effect in amyloid beta (1 to 42)-induced ICR mouse model assessed as reduction in escape latency at 0.5 mg/kg, icv measured on day 14 by Morris Water maze method; assay type: functional, organism-based; conditions: time 14.0 day
[7] = test system: Mus musculus; experiment: Cognitive enhancing effect in amyloid beta (1 to 42)-induced ICR mouse model assessed as increase in ACh level in brain at 0.5 to 10, icv measured on day 14 by ELISA; assay type: functional, organism-based; conditions: dose 0.5-10 mg/kg, time 14.0 day
[8] = test system: SH-SY5Y; experiment: Neuroprotective activity against amyloid beta (1 to 42)-induced cell damage in human SH-SY5Y cells assessed as inhibition of ROS level pretreated for 2 hrs followed by amyloid beta (1 to 42) addition and measured after 24 hrs by DCFH-DA staining based fluorescence microscopy analysis; assay type: functional; conditions: time 26.0 hrs
[9] = test system: PC-12; experiment: Neuroprotective activity against H2O2-induced cell damage in rat PC-12 cells at 5 uM pretreated for 2 hrs followed by H2O2 addition and measured after 24 hrs by MTT assay; assay type: functional, cell-based
[10] = test system: Mus musculus; experiment: Cognitive enhancing effect in amyloid beta (1 to 42)-induced ICR mouse model assessed as reduction in amyloid beta (1 to 42) peptide level in brain at 0.5 to 10 mg/kg, icv measured on day 14 by ELISA; assay type: functional, organism-based; conditions: dose 0.5-10 mg/kg
[11] = test system: PC-12; experiment: Neuroprotective activity against H2O2-induced cell damage in rat PC-12 cells pretreated for 2 hrs followed by H2O2 addition and measured after 24 hrs by MTT assay; assay type: functional, cell-based; conditions: dose 2.5-10 µM, time 26.0 hrs, DDE = dose-dependent effect
[12] = test system: SH-SY5Y; experiment: Neuroprotective activity against amyloid beta (1 to 42)-induced cell damage in human SH-SY5Y cells pretreated for 2 hrs followed by amyloid beta (1 to 42) addition and measured after 24 hrs by MTT assay; assay type: functional, cell-based; conditions: dose 0.5-2 µM, time 26.0 hrs, DDE = dose-dependent effect
[13] = test system: SH-SY5Y; experiment: Neuroprotective activity against GA-induced cell damage in human SH-SY5Y cells pretreated for 2 hrs followed by GA addition and measured after 24 hrs by MTT assay; assay type: functional, cell-based; conditions: dose 0.1-5 µM, time 26.0 hrs, DDE = dose-dependent effect

**Q.** For `CCN(C)C(=O)Oc1cccc([C@H](C)N(C)C)c1`, which Activity [1] is on record?
**A.** The Activity was “Active”.

**Q.** And the Activity [2]?
**A.** Its Activity is “Active”.

**Q.** What does the source list for `CCN(CC)Cc1ccccc1CNC(=O)c1cc(C)cc(NC(=O)c2ccc(F)cc2)c1`?
**A.** Activity [3]: Active; Activity [4]: Active; Activity [5]: Dde; Activity [6]: Active; Activity [7]: Active; Activity [8]: Active

**Q.** How did the Activity [1] turn out when `COc1ccc2c3c1O[C@H]1C[C@@H](O)C=C[C@@]31CCN(C)C2` was run?
**A.** The Activity was “Active”.

**Q.** And the Activity [2]?
**A.** The Activity was “Active”.

**Q.** How did the Activity [8] turn out when `CCN(CC)Cc1ccccc1CNC(=O)c1cccc(NC(=O)c2ccc(F)cc2)c1C` was run?
**A.** Its Activity is “Active”.

**Q.** With `CCCN(CCC)Cc1ccccc1CNC(=O)c1cccc(NC(=O)c2cccs2)c1` as the compound, how does the Activity [9] read?
**A.** The Activity was “Active”.

**Q.** With `CN(C)Cc1ccccc1CNC(=O)c1cccc(NC(=O)c2cccs2)c1` as the compound, how does the Activity [9] read?
**A.** Its Activity is “Active”.

**Q.** Which results are given for `CCN(CC)Cc1ccccc1CNC(=O)c1cccc(NC(=O)c2ccc(F)cc2)c1`?
**A.** Activity [10]: Active; Activity [3]: Active; Activity [11]: Dde; Activity [4]: Active; Activity [6]: Active; Activity [12]: Dde; Activity [7]: Active; Activity [9]: Active; Activity [8]: Active

**Q.** `CCN(CC)Cc1ccccc1CNC(=O)c1cc(Br)cc(NC(=O)c2ccc(F)cc2)c1` was tested. Which Activity [13] did it give?
**A.** The Activity was “Dde”.
